In patent US12486253B2, “Therapeutics for the degradation of mutant BRAF” (C4 THERAPEUTICS, INC., priority 2021, dated 2025):
Read-outs that look alike come from different tables or passages of the source.

Target: BRAF V600E (Homo sapiens, UniProt P15056, V600E)
Experiment: HiBiT cellular BRAF^V600E degradation assay
Assay type: cell-based
Details: for DC50: concentration at which 50% of total cellular BRAF^V600E is degraded; for Emax: read-out: HiBit 24 h Emax
[1] = A375.10 cells, 24 h, residual protein remaining in the cell

BRAF V600E, sequence (P15056 whole entry V600E): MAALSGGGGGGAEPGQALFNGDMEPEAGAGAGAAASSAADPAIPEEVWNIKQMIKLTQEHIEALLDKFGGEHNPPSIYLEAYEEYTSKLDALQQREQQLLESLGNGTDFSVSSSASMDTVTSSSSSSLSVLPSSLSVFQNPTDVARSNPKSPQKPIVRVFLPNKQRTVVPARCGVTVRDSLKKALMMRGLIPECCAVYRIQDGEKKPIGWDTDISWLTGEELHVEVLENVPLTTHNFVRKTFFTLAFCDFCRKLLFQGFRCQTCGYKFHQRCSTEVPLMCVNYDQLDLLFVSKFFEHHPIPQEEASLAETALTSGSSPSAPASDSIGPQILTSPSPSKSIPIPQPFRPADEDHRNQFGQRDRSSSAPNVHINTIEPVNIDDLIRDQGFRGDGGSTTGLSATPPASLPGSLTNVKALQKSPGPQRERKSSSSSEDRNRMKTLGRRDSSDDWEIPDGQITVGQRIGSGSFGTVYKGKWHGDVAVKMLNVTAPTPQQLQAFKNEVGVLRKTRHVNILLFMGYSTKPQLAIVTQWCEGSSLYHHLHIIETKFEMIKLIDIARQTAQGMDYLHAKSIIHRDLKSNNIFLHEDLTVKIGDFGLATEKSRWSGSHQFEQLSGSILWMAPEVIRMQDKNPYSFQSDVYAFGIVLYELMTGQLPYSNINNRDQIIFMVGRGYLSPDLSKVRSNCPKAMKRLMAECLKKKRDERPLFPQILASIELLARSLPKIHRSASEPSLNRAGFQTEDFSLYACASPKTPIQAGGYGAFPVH

**Q.** What does the source list for `CCN(C)S(=O)(=O)Nc1ccc(F)c(Oc2ccc3ncn(-c4cnn(C5CCN(C(=O)CN6CCC(c7ccc(NC8CCC(=O)NC8=O)cc7)CC6)CC5)c4)c(=O)c3c2)c1C#N` (centres unmarked) [Example 18, 6-[2-cyano-3-[[ethyl(methyl)sulfamoyl]amino]-6-fluorophenoxy]-3-[1-[1-[2-[4-[4-[(2,6-dioxopiperidin-3-yl)amino]phenyl]piperidin-1-yl]acetyl]piperidin-4-yl]pyrazol-4-yl]-4-oxoquinazoline]?
**A.** DC50 (A375.10 cells, 24 h): 0.0307 µM; Emax [1]: 18.5%

**Q.** With `CCN(C)S(=O)(=O)Nc1ccc(F)c(Oc2ccc3ncn(-c4cnn(C5CCN(C(=O)CN6CCC(c7ccc(NC8CCC(=O)NC8=O)c(F)c7)CC6)CC5)c4)c(=O)c3c2)c1C#N` (centres unmarked) [Example 19, 6-[2-cyano-3-[[ethyl(methyl)sulfamoyl]amino]-6-fluorophenoxy]-3-[1-[1-[2-[4-[4-[(2,6-dioxopiperidin-3-yl)amino]-3-fluorophenyl]piperidin-1-yl]acetyl]piperidin-4-yl]pyrazol-4-yl]-4-oxoquinazoline] as the compound, how does the DC50 (A375.10 cells, 24 h) read?
**A.** Its DC50 is 0.0423 µM.

**Q.** And the Emax?
**A.** The Emax was 20.6%.

**Q.** With `CCN(C)S(=O)(=O)Nc1ccc(F)c(Oc2ccc3ncn(-c4cnn(C5CCN(C(=O)CN6CCC(c7c(F)cc(NC8CCC(=O)NC8=O)cc7F)CC6)CC5)c4)c(=O)c3c2)c1C#N` (centres unmarked) [Example 20, 6-[2-cyano-3-[[ethyl(methyl)sulfamoyl]amino]-6-fluorophenoxy]-3-[1-[1-[2-[4-[4-[(2,6-dioxopiperidin-3-yl)amino]-2,6-difluorophenyl]piperidin-1-yl]acetyl]piperidin-4-yl]pyrazol-4-yl]-4-oxoquinazoline] as the compound, how does the DC50 (A375.10 cells, 24 h) read?
**A.** Its DC50 is 0.0144 µM.

**Q.** And the Emax [1]?
**A.** Its Emax is 17.7%.

**Q.** How did the DC50 (A375.10 cells, 24 h) turn out when `CCN(C)S(=O)(=O)Nc1ccc(F)c(Oc2ccc3ncn(-c4cnn(C5CCN(CC(=O)N6CCC(c7ccc(NC8CCC(=O)NC8=O)cc7)CC6)CC5)c4)c(=O)c3c2)c1C#N` (centres unmarked) [Example 21, 6-[2-cyano-3-[[ethyl(methyl)sulfamoyl]amino]-6-fluorophenoxy]-3-[1-[1-[2-[4-[4-[(2,6-dioxopiperidin-3-yl)amino]phenyl]piperidin-1-yl]-2-oxoethyl]piperidin-4-yl]pyrazol-4-yl]-4-oxoquinazoline] was run?
**A.** The DC50 was 0.0343 µM.

**Q.** What about the Emax [1] of the same compound?
**A.** The Emax was 19.6%.

**Q.** With `CCN(C)S(=O)(=O)Nc1ccc(F)c(Oc2ccc3ncn(C4CC5(CCN(C(=O)CN6CCC(c7ccc(NC8CCC(=O)NC8=O)cc7F)CC6)CC5)C4)c(=O)c3c2)c1C#N` (centres unmarked) [Example 22, 6-[2-cyano-3-[[ethyl(methyl)sulfamoyl]amino]-6-fluorophenoxy]-3-[7-[2-[4-[4-[(2,6-dioxopiperidin-3-yl)amino]-2-fluorophenyl]piperidin-1-yl]acetyl]-7-azaspiro[3.5]nonan-2-yl]-4-oxoquinazoline] as the compound, how does the DC50 (A375.10 cells, 24 h) read?
**A.** The DC50 was 0.0112 µM.

**Q.** And the Emax [1]?
**A.** Its Emax is 11.5%.

**Q.** How did the DC50 (A375.10 cells, 24 h) turn out when `CCN(C)S(=O)(=O)Nc1ccc(F)c(Oc2ccc3ncn(C4CC5(CCN(C(=O)CC6(O)CCN(c7ccc(NC8CCC(=O)NC8=O)cc7F)CC6)CC5)C4)c(=O)c3c2)c1C#N` (centres unmarked) [Example 23, 6-[2-cyano-3-[[ethyl(methyl)sulfamoyl]amino]-6-fluorophenoxy]-3-[7-[2-[1-[4-[(2,6-dioxopiperidin-3-yl)amino]-2-fluorophenyl]-4-hydroxypiperidin-4-yl]acetyl]-7-azaspiro [3.5]nonan-2-yl]-4-oxoquinazoline] was run?
**A.** The DC50 was 0.0193 µM.

**Q.** What about the Emax [1] of the same compound?
**A.** Its Emax is 21.7%.

**Q.** Which DC50 (A375.10 cells, 24 h) does the source give for `CCN(C)S(=O)(=O)Nc1ccc(F)c(Oc2ccc3ncn(C4COC5(CCN(C(=O)CN6CCC(c7ccc(NC8CCC(=O)NC8=O)cc7F)CC6)CC5)C4)c(=O)c3c2)c1C#N` (centres unmarked) [Example 24, 3-[6-[2-cyano-3-[[ethyl(methyl)sulfamoyl]amino]-6-fluorophenoxy]-4-oxoquinazolin-3-yl]-8-[2-[4-[4-[(2,6-dioxopiperidin-3-yl)amino]-2-fluorophenyl]piperidin-1-yl]acetyl]-1-oxa-8-azaspiro[4.5]decane] here?
**A.** The DC50 was 0.0195 µM.

**Q.** What about the Emax [1] of the same compound?
**A.** Its Emax is 10.8%.

**Q.** What does the source list for `CCN(C)S(=O)(=O)Nc1ccc(F)c(Oc2ccc3ncn(C4C5CN(C(=O)CN6CCC(c7ccc(NC8CCC(=O)NC8=O)cc7F)CC6)CC54)c(=O)c3c2)c1C#N` (centres unmarked) [Example 25, 6-[2-cyano-3-[[ethyl(methyl)sulfamoyl]amino]-6-fluorophenoxy]-3-[3-[2-[4-[4-[(2,6-dioxopiperidin-3-yl)amino]-2-fluorophenyl]piperidin-1-yl]acetyl]-3-azabicyclo[3.1.0]hexan-6-yl]-4-oxoquinazoline]?
**A.** DC50 (A375.10 cells, 24 h): 0.0348 µM; Emax [1]: 11.9%

**Q.** How did the DC50 (A375.10 cells, 24 h) turn out when `CCN(C)S(=O)(=O)Nc1cccc(Oc2ccc3ncn(C4CC5(CCN(C(=O)CN6CCC(c7ccc(NC8CCC(=O)NC8=O)cc7F)CC6)CC5)C4)c(=O)c3c2)c1C#N` (centres unmarked) [Example 26, 6-[2-cyano-3-[[ethyl(methyl)sulfamoyl]amino]phenoxy]-3-[7-[2-[4-[4-[(2,6-dioxopiperidin-3-yl)amino]-2-fluorophenyl]piperidin-1-yl]acetyl]-7-azaspiro[3.5]nonan-2-yl]-4-oxoquinazoline] was run?
**A.** Its DC50 is 0.00849 µM.

**Q.** And the Emax [1]?
**A.** Its Emax is 10%.

**Q.** How did the DC50 (A375.10 cells, 24 h) turn out when `CCN(C)S(=O)(=O)Nc1ccc(F)c(Oc2ccc3ncn(C4COC5(CCN(C(=O)CC6(O)CCN(c7ccc(NC8CCC(=O)NC8=O)cc7F)CC6)CC5)C4)c(=O)c3c2)c1C#N` (centres unmarked) [Example 27, 3-[6-[2-cyano-3-[[ethyl(methyl)sulfamoyl]amino]-6-fluorophenoxy]-4-oxoquinazolin-3-yl]-8-[2-[1-[4-[(2,6-dioxopiperidin-3-yl)amino]-2-fluorophenyl]-4-hydroxypiperidin-4-yl]acetyl]-1-oxa-8-azaspiro[4.5]decane] was run?
**A.** Its DC50 is 0.015 µM.

**Q.** And the Emax [1]?
**A.** The Emax was 22.2%.

**Q.** Which DC50 (A375.10 cells, 24 h) does the source give for `CCN(C)S(=O)(=O)Nc1ccc(F)c(Oc2ccc3ncn(C4CCC5(CCN(C(=O)CN6CCC(c7ccc(NC8CCC(=O)NC8=O)cc7F)CC6)CC5)C4)c(=O)c3c2)c1C#N` (centres unmarked) [Example 28, 6-[2-cyano-3-[[ethyl(methyl)sulfamoyl]amino]-6-fluorophenoxy]-3-[8-[2-[4-[4-[(2,6-dioxopiperidin-3-yl)amino]-2-fluorophenyl]piperidin-1-yl]acetyl]-8-azaspiro[4.5]decan-3-yl]-4-oxoquinazoline] here?
**A.** The DC50 was 0.0229 µM.

**Q.** And the Emax [1]?
**A.** The Emax was 10.2%.

**Q.** With `CCN(C)S(=O)(=O)Nc1ccc(F)c(Oc2ccc3ncn(C4CCOC5(CCN(C(=O)CN6CCC(c7ccc(NC8CCC(=O)NC8=O)cc7F)CC6)CC5)C4)c(=O)c3c2)c1C#N` (centres unmarked) [Example 29, 4-[6-[2-cyano-3-[[ethyl(methyl)sulfamoyl]amino]-6-fluorophenoxy]-4-oxoquinazolin-3-yl]-9-[2-[4-[4-[(2,6-dioxopiperidin-3-yl)amino]-2-fluorophenyl]piperidin-1-yl]acetyl]-1-oxa-9-azaspiro[5.5]undecane] as the compound, how does the DC50 (A375.10 cells, 24 h) read?
**A.** The DC50 was 0.0337 µM.

**Q.** What about the Emax [1] of the same compound?
**A.** The Emax was 12.1%.

**Q.** How did the DC50 (A375.10 cells, 24 h) turn out when `CCN(C)S(=O)(=O)Nc1ccc(F)c(Oc2ccc3ncn(C4CCC5(CC4)CCN(C(=O)CN4CCC(c6ccc(NC7CCC(=O)NC7=O)cc6F)CC4)CC5)c(=O)c3c2)c1C#N` (centres unmarked) [Example 30, 9-[6-[2-cyano-3-[[ethyl(methyl)sulfamoyl]amino]-6-fluorophenoxy]-4-oxoquinazolin-3-yl]-3-[2-[4-[4-[(2,6-dioxopiperidin-3-yl)amino]-2-fluorophenyl]piperidin-1-yl]acetyl]-3-azaspiro[5.5]undecane] was run?
**A.** The DC50 was 0.0164 µM.

**Q.** What about the Emax [1] of the same compound?
**A.** The Emax was 12.1%.
